Molecules are shown by their SMILES. Calls of active or inactive are those of the source.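 Rule for the calls: active = IC50 at or below 20 µM in the dose response; inactive = the rest.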

The assay relates to HL-1 cardiomyocytes, 2-deoxyglucose injury, ATP luminescence, 2 h. The experiment in a line: HL-1 cardiomyocyte survival under 2-deoxyglucose – cell-based, ATP luminescence, SAR follow-up (AID 623873).
Take `O=c1[nH]c2ccccc2cc1CN(Cc1ccco1)S(=O)(=O)c1ccc(F)cc1`: the IC50 was > 79 µM (inactive). For `COc1cccc(NC(=O)CN(C)C(=O)c2cc(-c3cccs3)nn2-c2ccccc2)c1`, the IC50 is > 79 µM (inactive). To `COc1cccc(CN(C)C(=O)c2cc(-c3ccccc3)nc3ccc(C)cc23)c1OC` belongs > 79 µM (inactive); to `COc1ccc2c(c1OC)C(=O)N1c3ccccc3C(=O)N(c3cccc(Br)c3)C21` (configuration not stated), 0.684 µM; to `Cc1ccccc1N(C(=O)c1snc(C(N)=O)c1N)C(C(=O)NCc1ccc(F)cc1)c1ccc(O)cc1` (configuration not stated), > 79 µM (inactive).

As for `CCN(CC(=O)Nc1ccc(OC)cc1)C(=O)c1cc(-c2cccs2)nn1-c1ccccc1`, the 50% inhibitory concentration (IC50) was 2.27 µM. To `COc1ccc(-c2cc(C(=O)N(C)C)c3ccccc3n2)cc1OC` belongs 71.9 µM (inactive). To `COCCNC(=O)C(c1ccc(O)cc1)N(C(=O)c1snc(C(N)=O)c1N)c1ccccc1F` (configuration not stated) belongs > 79 µM (inactive).

Consider `COc1cccc(NC(=O)C(Sc2nc3ccccc3c(=O)n2CC(C)C)c2ccccc2)c1` (configuration not stated), for which the IC50 is > 79 µM (inactive). To `COc1ccc(-n2cc(-c3ccccc3)c3c(N4CCCCC4)ncnc32)cc1` belongs > 79 µM (inactive); to `COc1ccccc1N1C(=O)c2ccccc2N2C(=O)c3c(ccc(OC)c3OC)C12` (configuration not stated), 29.4 µM (inactive); to `NC(=O)c1nsc(C(=O)N(c2cccc(F)c2)C(C(=O)NC2CCCC2)c2ccc(O)cc2)c1N` (configuration not stated), > 79 µM (inactive). To `COc1cc(-c2cc(C(=O)Nc3cccc(C(C)=O)c3)c3ccccc3n2)cc(OC)c1OC` belongs 1.76 µM; to `CCCn1c(SC(C(=O)Nc2cccc(OC)c2)c2ccccc2)nc2ccccc2c1=O` (configuration not stated), > 79 µM (inactive). To `O=C1c2ccccc2N2C(=O)c3ccccc3[C@H]2N1c1ccccc1` belongs > 79 µM (inactive). `CCN(CC)C(=O)C(=O)c1c(-c2ccccc2)[nH]c2ccccc12`: the IC50 was > 79 µM (inactive). Consider `NC(=O)c1nsc(C(=O)N(Cc2ccccc2)C(C(=O)NCc2ccc(F)cc2)c2ccc(O)cc2)c1N` (configuration not stated), for which the IC50 was > 79 µM (inactive).

On to `Cc1ccc(-c2[nH]c3ccccc3c2C(=O)C(=O)N(C)C)cc1`, for which the IC50 is > 79 µM (inactive).

For the compound `COc1ccc(-n2cc(-c3ccccc3)c3c(NCc4ccccc4)ncnc32)cc1`, the IC50 was > 79 µM (inactive). To `O=C(C(=O)N1CCCCC1)c1c(-c2ccccc2)[nH]c2ccccc12` belongs > 79 µM (inactive); to `COc1ccc2c(c1OC)C(=O)N1c3ccccc3C(=O)N(c3ccccc3C)C21` (configuration not stated), 11.7 µM (inactive). `Cc1ccc(C)c(S(=O)(=O)N2CCN(C(=O)c3cc4cc(C)ccc4nc3C)CC2)c1`: the IC50 is > 79 µM (inactive). Regarding `Cc1ccc(S(=O)(=O)N2CCN(C(=O)c3cc(=O)[nH]c4ccccc34)CC2)cc1C`, the IC50 was > 79 µM (inactive). On to `COc1ccc2cc(C(=O)N3CCN(S(=O)(=O)c4cc(C)ccc4C)CC3)c(C)nc2c1`, for which the IC50 was > 79 µM (inactive).

As for `COc1ccc2c(c1OC)C(=O)N1c3ccccc3C(=O)N(c3ccc(F)cc3)C21` (configuration not stated), the 50% inhibitory concentration (IC50) is 3.4 µM. As to `Cc1ccc(S(=O)(=O)N(Cc2cccnc2)Cc2cc3ccccc3[nH]c2=O)cc1`, the IC50 was > 79 µM (inactive). To `COc1ccc(S(=O)(=O)N(Cc2cccnc2)Cc2cc3ccccc3[nH]c2=O)cc1` belongs > 79 µM (inactive); to `COc1ccc(N2C(=O)c3ccccc3N3C(=O)c4c(ccc(OC)c4OC)C23)cc1` (configuration not stated), 1.47 µM.

Regarding `COc1ccc(-n2cc(-c3ccccc3)c3c(N4CCCC4)ncnc32)cc1`, the IC50 was > 79 µM (inactive). To `COc1ccc(-c2cc(C(=O)NCc3ccco3)c3ccccc3n2)cc1OC` belongs 20.8 µM (inactive). To `CCCN(CC(=O)Nc1ccccc1OC)C(=O)c1cc(-c2cccs2)nn1-c1ccccc1` belongs > 79 µM (inactive). To `COc1ccc(-c2cc(C(=O)N(C)Cc3ccc(OC)c(OC)c3OC)c3ccccc3n2)cc1OC` belongs 2.9 µM; to `COc1ccc2cc(C(=O)N3CCN(S(=O)(=O)c4ccc(C)cc4C)CC3)c(C)nc2c1`, > 79 µM (inactive); to `COc1ccc2c(=O)c(C(=O)N3CCN(S(=O)(=O)c4c(C)cc(C)cc4C)CC3)c[nH]c2c1`, > 79 µM (inactive). For `O=C(C(=O)N1CCCC1)c1c(-c2ccccc2)[nH]c2ccccc12`, the IC50 is > 79 µM (inactive). For `COc1cccc(CN(C)C(=O)c2cc(-c3ccc(OC)c(OC)c3)nc3ccccc23)c1`, the half-maximal inhibitory concentration (IC50) is 5.52 µM. To `Cc1ccc(NC(=O)CN(C)C(=O)c2cc(-c3cccs3)nn2-c2ccccc2)cc1` belongs > 79 µM (inactive); to `COc1ccc(-c2cc(C(=O)NCc3ccccc3)c3ccccc3n2)cc1OC`, > 79 µM (inactive). As for `Cc1ccc2cc(CN(C)S(=O)(=O)c3ccc(F)cc3)c(=O)[nH]c2c1`, the IC50 was > 79 µM (inactive).

As for `COCCn1c(SC(C(=O)Nc2cc(C)ccc2C)c2ccccc2)nc2ccccc2c1=O` (configuration not stated), the IC50 is > 79 µM (inactive). To `CCN(CC)S(=O)(=O)c1cc(C(=O)N2CCN(Cc3cccc4cccnc34)CC2)ccc1C` belongs > 79 µM (inactive). In the case of `COc1ccc(NC(=O)CN(C)C(=O)c2cc(-c3cccs3)nn2-c2ccccc2)cc1`, the IC50 was > 79 µM (inactive).

For the origin of these results see PubChem BioAssay AID623873 (Sanford-Burnham Center for Chemical Genomics, 2012).
